# According to PMC11489250, “Optimized methods for measuring competitive binding of chemical substances to thyroid hormone distributor proteins transthyretin and thyroxine binding globulin” (Archives of Toxicology, 2024):
# Read-outs that look alike come from different tables or passages of the source.
# Key:
# Human TTR [1] = target: T1, Human TTR (Homo sapiens, UniProt P02766); test: Optimized competitive TTR-binding assay with FITC-T4 (fluorescence intensity readout); settings: for T4EQ concentration (TTR binding): T4EQi = highest human blood concentration x T4-REPi; for Contribution to T4EQ concentration (TTR binding): mixture of highest human blood concentrations of five model compounds; for IC20: read-out: TTR IC20
# T1 construct: Transthyretin (prealbumin, TTR) >95% from human plasma; purchased Sigma Aldrich (Zwijndrecht, The Netherlands); host or cells: human plasma
# Procedure: All TTR-binding experiments were performed in black 96-well polystyrene nonbinding plates. Experimental wells and background wells were prepared in triplicate per plate. […] Fluorescence intensity (FI) was measured at λex = 485 ± 20 nm and λem = 528 ± 20 nm (CLARIOstar Plus microplate reader, BMG LABTECH).
# To test the effect of the change in temperature and incubation time, a saturation experiment (N = 3, n = 3) was performed in Tris–HCl buffer (0.1 M Tris (Thermo Scientific, Rockford, USA), 0.1 M NaCl (Merck KGaA, Darmstadt, Germany), 1 mM EDTA (VWR International, B.V. Amsterdam, The Netherlands); pH 8.0). […] Two 96-well plates were prepared at the same time. After shaking for 5 min on a plate shaker, one prepared plate was incubated on ice (at 4 °C) and another plate was incubated at room temperature (22 °C). For both plates the fluorescence was measured at different time points: 5 min, 15 min, 60 min and 120 min.
# First, 48 µL Tris–HCl buffer (pH 8.0) was pipetted to the wells, followed by 2 µL of the compound (in DMSO). […] Final solvent (DMSO) concentrations in all conditions amounted to 1%. All plates were shaken for 5 min on a plate shaker, followed by an incubation for 15 min at room temperature. The standard operation procedure (SOP) is provided in Supplementary Information file (Section 3).
# Calculations of the ICX, Kd and Ki values of TTR-binding assays are described in the Supplementary Information file (Section 3).
# 3.7.5 The competitive TTR binding screening assay
# 3.7.8 Processing data to determine IC50 and calculate Ki value
# [2] = target: T2, thyroxine-binding globulin (TBG) (Homo sapiens, UniProt P05543); test: Competitive TBG-binding assay with FITC-T4 (fluorescence polarization readout); settings: 5 nM FITC-T4, 10 nM TBG, RT
# T2 construct: purchased Bio-rad Laboratories, Inc. (Veenendaal, The Netherlands)
# T2 sequence (P05543 21-415): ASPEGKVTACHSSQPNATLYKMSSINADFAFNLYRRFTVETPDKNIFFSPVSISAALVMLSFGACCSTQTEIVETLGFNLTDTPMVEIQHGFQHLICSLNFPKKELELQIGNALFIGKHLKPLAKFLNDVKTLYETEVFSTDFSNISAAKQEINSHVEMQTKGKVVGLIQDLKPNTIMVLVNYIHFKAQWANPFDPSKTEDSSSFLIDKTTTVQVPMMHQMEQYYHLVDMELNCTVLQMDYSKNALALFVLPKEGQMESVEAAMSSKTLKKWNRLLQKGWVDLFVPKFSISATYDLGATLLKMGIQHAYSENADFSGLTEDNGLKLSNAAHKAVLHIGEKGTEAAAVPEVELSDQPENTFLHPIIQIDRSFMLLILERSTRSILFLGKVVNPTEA
# Procedure: Prepared plates were first shaken for 5 min and then incubated for 15 min at room temperature before being analysed by the microplate reader at FP mode (CLARIOstar Plus, BMG LABTECH).
# Accordingly, dilution series of all compounds were prepared in DMSO. First, 24 µL Tris–HCl buffer was pipetted to the wells, followed by 1 µL of the compound stock solution. […] Solvent (DMSO) concentrations in all conditions were 1%. The plates were shaken for 5 min on a plate shaker, followed by an incubation for 15 min at room temperature.
# The adjusted polarization was set to a reference value of 35 mP. The adjustment gain values ranged from 1900 to 2200. The plate layout of TBG-binding assay is provided in Supplementary Information file (Section 4).
# For the competitive TBG-binding experiments, concentration–response curves were fitted:2 r=rmin+rmax-rmin/1+IC50/X^HillSlope with rmin and rmax being the minimum and maximum anisotropy values, respectively. X is the concentration of added competitor. Equations that were used for the calculation of the ICX and Ki values in the TTR-binding assays (Supplementary Information, Section 3) were also used to determine the ICX and Ki values in TBG-binding assays without any changes, respectively. The single Kd, IC20, IC50 and Ki were determined based on replicates (n) in each experiment, and then the average and confidence intervals were determined based on the Kd, IC20, IC50 and Ki values from sperate experiments (N).
# Alternatively, another approach to determine ICX, Kd and Ki values based on a theoretical model of ligand–protein binding biochemistry was taken as described in detail in the Supplementary Information file (Section 5). For this approach, R was used to fit the model to the data. The results obtained from the two approaches were compared in Section 3.4.
# S5.2 Ki and IC50 estimation
# Human TTR [3] = target: T1, Human TTR; settings: FITC-T4 110 nM, human TTR 30 nM, 4 °C, 2 h; ref Hamers et al. [2020]; read-out: TTR literature Ki; cited from earlier work
# TTR = target: TTR; parameters: method as in Ren et al. [2016]; settings: ref Ren et al. [2016]; read-out: TTR literature Ki; cited from earlier work
# TBG = target: TBG; parameters: method as in Ren et al. [2016]; settings: ref Ren et al. [2016]; read-out: TBG Ki; cited from earlier work
# [4] = TTR IC50, 110 nM FITC-T4, 30 nM TTR, RT, 15 min, average [95% CI]
# [5] = TTR IC50 [95% CI], 55 nM FITC-T4, 30 nM TTR, RT (5 min)
# [6] = TTR IC50 [95% CI], 55 nM FITC-T4, 30 nM TTR, RT (15 min)
# [7] = TTR IC50 [95% CI], 55 nM FITC-T4, 30 nM TTR, RT (60 min)
# [8] = TTR IC50 [95% CI], 55 nM FITC-T4, 30 nM TTR, RT (120 min)
# [9] = TTR IC50 [95% CI], 55 nM FITC-T4, 30 nM TTR, on ice (120 min)
# [10] = TTR Ki [95% CI], 55 nM FITC-T4, 30 nM TTR, RT (5 min)
# [11] = TTR Ki [95% CI], 55 nM FITC-T4, 30 nM TTR, RT (15 min)
# [12] = TTR Ki [95% CI], 55 nM FITC-T4, 30 nM TTR, RT (60 min)
# [13] = TTR Ki [95% CI], 55 nM FITC-T4, 30 nM TTR, on ice (120 min)
# [14] = TTR Ki, 110 nM FITC-T4, 30 nM TTR, RT, 15 min, derived from IC20, average [95% CI]
SMILES,T4EQ concentration (TTR binding) (Human TTR [1]) [nM],IC50 (Human TTR [1]; [4]) [nM],IC50 (Human TTR [1]; [5]) [nM],IC50 (Human TTR [1]; [6]) [nM],IC50 (Human TTR [1]; [7]) [nM],IC50 (Human TTR [1]; [8]) [nM],IC50 (Human TTR [1]; [9]) [nM],Ki (Human TTR [1]; [10]) [nM],Ki (Human TTR [1]; [11]) [nM],Ki (Human TTR [1]; [12]) [nM],"Ki (Human TTR [1]; TTR Ki [95% CI], 55 nM FITC-T4, 30 nM TTR, RT (120 min)) [nM]",Ki (Human TTR [1]; [13]) [nM],Ki (Human TTR [1]; [14]) [nM],Contribution to T4EQ concentration (TTR binding) (Human TTR [1]) [%],IC20 (Human TTR [1]) [nM],inhibition of the FITC-T4 binding to TBG (in words) [2],Ki (Human TTR [3]) [nM],Ki (TTR) [nM],Ki (TBG) [nM],"displacement of FITC-T4 from TTR (in words) (Human TTR [1]; 110 nM FITC-T4, 30 nM TTR, RT)"
"O=S(=O)(O)C(F)(F)C(F)(F)C(F)(F)C(F)(F)C(F)(F)C(F)(F)C(F)(F)C(F)(F)F [PFOS, Perfluorooctanesulfonic acid]",9.73,271,191,189,196,194,179,143,133,127,133,171,243,50.9,118,No (or only limited) inhibition,160,,,
"O=C(O)C(F)(F)C(F)(F)C(F)(F)C(F)(F)C(F)(F)C(F)(F)C(F)(F)F [PFOA, perfluorooctanoic acid]",1.26,763,500,496,459,460,461,268,280,304,,353,568,6.6,267,No (or only limited) inhibition,1100,60,,
"O=C(O)C(F)(F)C(F)(F)C(F)(F)C(F)(F)C(F)(F)C(F)(F)C(F)(F)C(F)(F)C(F)(F)C(F)(F)C(F)(F)C(F)(F)C(F)(F)F [PFTdA, perfluorotetradecanoic acid]",,,,,,,,,,,,,,,,,,,26600,
OC[C@@H](O)[C@@H](O)[C@H](O)[C@H](O)CO [D-mannitol],,,,,,,,,,,,,,,,no inhibition,,,,"Except for D-mannitol, all compounds displaced FITC-T4 from TTR"
